The text below walks through data of patent publication US8541670B2, “Compositions and methods for inhibiting tumor cell growth” (priority 2007, dated 2013).

Where no end group is shown, it is not given here.

Assay [1] deals with AKT-PKAc complex (Mus musculus, UniProt P31750). The assay can be described thus: In vivo co-immunoprecipitation of AKT-PKAc complex from striatum. Also on record: ZaTa could disrupt the physical complex between AKT and PKAc in vivo; from tissue; host or cells: striatum of adult C57BL/6 mouse; species or system C57BL/6 mouse. The following applies: versus vehicle-treated hemisphere. As to the method:
The phenotypic consequence of disrupting the AKT-PKAc complex was also determined. ZaTa peptide was injected into the striatum of one hemisphere of the brain and DMSO, as vehicle, was injected into the other brain hemisphere of an adult C57BL/6 mouse under anesthesia. The brain was removed and dissected. Equal protein amounts from each hemisphere were subjected to immunoprecipitation by an anti-AKT antibody. […] To compare PKAc protein levels in the ZaTa- and vehicle-treated brain hemisphere lysates, western blot analysis was conducted.

Assay [2] has as its target T1, AKT1 (Homo sapiens, UniProt P31749).
T1 construct: purchased Upstate Biotechnology
The assay can be described thus: AKT kinase assay with Ser-9 GSK-3 GST fusion protein substrate (western blot, phospho-specific antibody). In kind it is biochemical. The following applies: wild-type active AKT. As to the method:
Since the observed effect of H-89 and forskolin on AKT activity in cultured cells could be interpreted as the result of the regulatory interference of other signaling pathways, in vitro analysis was carried using purified, active forms of AKT and PKAc to examine the direct result of this interaction on the kinase catalytic activity. […] This decrease in the catalytic activity of AKT by PKAc was inhibited when the PKA inhibitor was added to the reaction mixture. […] The decrease in the catalytic activity of AKT by PKAc was also observed with two mutants and active forms of AKT1, one with a deletion in the PH domain and the other one with a Ser473Asp mutation. As with wild-type AKT, the inhibitory effect of PKAc on the mutants was reversed in the presence of the PKA inhibitor peptide. […]
(§1) For non-radioactive kinase assays, typically 25 ng of active AKT1 or PKAc (Upstate Biotechnology) was used in a kinase assay reaction buffer (20 mM MOPS, pH 7.2, 25 mM […]-glycerophosphate, 5 mM EGTA, 1 mM Na3VO4, 1 mM dithiothreitol, 75 mM MgCl2, and 0.5 mM ATP) in the presence of either 1 μL of Ser-9 GSK-3 GST fusion protein (Cell Signaling), or recombinant DARPP-32 (10 μg). […] A 5 μL aliquot of the reaction was transferred to phosphocellulose paper, washed for 30 minutes with dH2O, and CPM of samples read in scintillation counter.
In general terms: Immunoblotting shows a protein as a band on a membrane.

Assay [3] deals with T2, PKAc (Homo sapiens, UniProt P17612).
T2 construct: purchased Upstate Biotechnology
The assay can be described thus: Independent kinase assays on catalytic activity of PKAc. In kind it is biochemical.
Excerpt: Of particular interest with regard to inhibitory activity toward AKT was peptide […](SEQ ID NO:60) which flanked the Thr-197 phosphorylation site of PKAc. […] Furthermore, the inhibitory effect of ZaTa peptide was compared with an adjacent peptide ([…] SEQ ID NO:59), a peptide that overlaps with the 11 N-terminal amino acid residues of the ZaTa peptide and carries the Thr-197 phosphorylation site. In this assay, the level of incorporation of −^32 P into Ser-21 GSK-3[…] substrate peptide was used as the measure of AKT1 in vitro catalytic activity.
as §1

Assay [4] deals with axonal filament bundles in striatum. The assay can be described thus: In vivo axon morphology, neurofilament-H staining of striatum after stereotactic injection. The following applies: 18 hours after surgery, versus DMSO hemisphere. Also noted: species or system mouse. The method, then: To determine the phenotypic effect of disrupting the AKT-PKAc complex in an in vivo setting, ZaTa peptide was stereotactically injected into the brain of a mouse and the animal was perfused 18 hours after recovery from surgery. Because AKT is known to have a role in axonal morphology (Markus, et al. (2002) Neuron 35:65-76), coronal sections of striatum were stained with neurofilament-H(NF—H), as an axonal-specific marker. […] PKA is also known to have a role in regeneration of growth cones on axons (Chierzi, et al. (2005) Eur. J. Neurosci. 21:2051-2062). Therefore, given the data provided herein, it is believed that a proper interaction between AKT and PKAc is involved in maintaining normal neuronal morphology.

Assay [5] relates to AKT. The assay can be described thus: Western blot of AKT substrate phosphorylation in N2a cells. In kind it is cell-based. The following applies: different doses. The method, then:
AKT affects a network that positively regulates G1/S cell cycle progression through several mechanisms that involve the expression and subcellular localization of the CDK inhibitor p27^Kip1 (Blain and Massague (2002) Nat. Med. 8:1076-1078; Liang, et al. (2002) supra; Shin, et al. (2002) supra; Viglietto, et al. (2002) supra). Based on these studies, the effect of ZaTa peptide on cell proliferation was assessed. […] Capturing live images of cultured N2a cells in the presence of different concentrations of the ZaTa peptide confirmed an obvious reduction in the number of dividing cells.
N2a cells were cultured in Dulbecco's Modified Eagle's Medium (DMEM) and OPTI-MEM® media (50% of each; GIBCO-BRL, Gaithersberg, Md.) supplemented with 5% fetal bovine serum (FBS; SIGMA, St. Louis, Mo.), penicillin-streptomycin and L-Glutamine (GIBCO-BRL). […] Protein concentration was measured using a commercially available protein assay (BIO-RAD, […].) protein assay and spectrometry at 595 Å. […] The membrane was probed with primary and secondary antibodies and signals were detected by chemiluminescence followed by autoradiography.

For assay [6], the system named is non-proliferating neurons in primary cortical culture. Kind of assay: TUNEL assay in primary cortical neuron culture. In kind it is cell-based. The following applies: 1 or 5 µM, 72-hour treatment, compared to control peptide. As to the method:
It is now well-established that AKT protects against apoptosis through phosphorylation and inhibition of pro-apoptotic mediators such as BAD, FOXO family members and IKK-[…] (Datta, et al. (1999) Genes Dev. 13:2905-2927). […] Primary neurons were treated with DMSO, 1 µM or 5 µM of either ZaTa or the control peptide for a duration of 1, 3, 16, 24, 48 or 72 hours. The number of apoptotic cells was counted following the TUNEL assay. […] The increase in the number of apoptotic neurons following treatment with ZaTa was consistent with its potent intra-neuronal inhibition of AKT.

Chain of AKT-PKAc complex (P31750 whole entry, one chain of several): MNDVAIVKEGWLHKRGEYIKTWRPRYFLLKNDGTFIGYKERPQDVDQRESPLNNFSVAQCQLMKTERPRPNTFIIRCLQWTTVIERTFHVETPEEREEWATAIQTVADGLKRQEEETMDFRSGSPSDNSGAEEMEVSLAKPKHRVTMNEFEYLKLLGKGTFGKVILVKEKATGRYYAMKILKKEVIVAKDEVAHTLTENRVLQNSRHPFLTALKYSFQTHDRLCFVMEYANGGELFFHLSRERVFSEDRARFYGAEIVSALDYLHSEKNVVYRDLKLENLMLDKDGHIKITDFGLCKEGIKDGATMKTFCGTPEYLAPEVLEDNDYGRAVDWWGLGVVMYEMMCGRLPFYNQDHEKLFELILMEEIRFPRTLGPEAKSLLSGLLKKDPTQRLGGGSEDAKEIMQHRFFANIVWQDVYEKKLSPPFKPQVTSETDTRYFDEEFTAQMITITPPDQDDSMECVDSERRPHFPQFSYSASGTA
T1 sequence (P31749 whole entry): as the sequence (P31750 whole entry, one chain of several) above, with N2S, S50A, A100T, R112K, T117E, T389K, N410G, D415H counted along it

Consider AKRVKGRTWTLCGTPEY [ZaTa], for which, in assay [1], the “amount of PKAc in physical contact with AKT, in vivo” value is “dramatically reduced”. Moreover, in assay [2], the “AKT catalytic activity, phosphorylation level of Ser-9 GSK-3 GST substrate” value was “significantly reduced”. In addition, the “inhibitory effect on catalytic activity of PKAc” value in assay [3] was “did not exhibit any inhibitory effect”. The “staining pattern of axonal filament bundles (NF-H) in striatum” value in assay [4] is listed as “Changes in the staining pattern of axonal filament bundles”. Besides, the “phosphorylation level of AKT substrates in N2a cells” value in assay [5] is “concomitant decrease”. Also, the “number of TUNEL-positive cells” value in assay [6] is given as “marked dose-dependent increase”.
